In patent US8895738B2, “Mesoionic pyrido [1, 2-A] pyrimidine pesticides” (E I du Pont de Nemours and Company, priority 2010, dated 2014):
Counter-ions that a name gives are not always drawn.

How the values were obtained:
Type in all cases: in vivo
[1] = tested on: corn planthopper (Peregrinus maidis); assay: Test D: control of corn planthopper on maize plant, contact and/or systemic; conditions: 144 h, assessed after 6 days, read-out: control efficacy: mortality
Method: For evaluating control of corn planthopper (Peregrinus maidis) through contact and/or systemic means, the test unit consisted of a small open container with a 3-4-day-old maize plant (spike) inside. White sand was added to the top of the soil prior to application. Test compounds were formulated and sprayed at 250, 50, 10 and/or 2 ppm, and replicated three times as described for Test A. After spraying, the test units were allowed to dry for 1 h before they were post-infested with ˜15-20 nymphs (18 to 21 day old) by sprinkling them onto the sand with a salt shaker. A black, screened cap was placed on the top of each test unit, and the test units were held for 6 days in a growth chamber at 22-24° C. and 50-70% relative humidity. Each test unit was then visually assessed for insect mortality.

[2] = tested on: Rice plants (indica cultivar ‘IR 64’); assay: Test L: vigor and harvest yield of rice crop outdoors, Dhamtari; conditions: for harvest yield: controls 2630 kg/ha
Method: (§1) To evaluate the effect of application of a compound of the invention on the vigor of rice crops grown under outdoor conditions, Tests 1 through 0 were conducted. “a.i.” refers to the amount of active ingredient applied.
Rice plants (indica cultivar ‘IR 64’) were transplanted into flooded 6 m×5 m test plots of clay loam soil in the Dhamtari district, State of Chhattisgarh, India, in the early spring season, and grown using local agronomic practices. After 79 days, in the hot season before monsoon arrival, aqueous mixtures containing 30 g a.i./ha of indoxacarb in form of STEWARD® Insecticide, 20 g a.i./ha of chlorantraniliprole, and 6.25, 12.5, 25 or 50 g a.i./ha of Compound 3 were applied to the foliage of the rice plants at in a spray volume of 500 L/ha using a backpack sprayer. Plots of control rice plants were sprayed with an aqueous mixture containing 30 g a.i./ha of indoxacarb in form of STEWARD® Insecticide and 20 g a.i./ha of chlorantraniliprole (i.e. no Compound 3). Each treatment and control was replicated three times, and the plots were arranged in a randomized complete block design. At the time of application of Compound 3, the pest level of rice brown planthopper (Nilaparvata lugens) was high, i.e. above the level considered economically significant.
Even though the pest level was high, at the time of treatment the plants had already reached full height and produced panicles, so the treatment with Compound 3 was too late to noticeably increase crop vigor rated by general external appearance (e.g., plant height, number of panicles). Nevertheless, the treatments substantially benefited crop vigor as measured by harvest yield. Harvest yields from the crops treated with 6.25, 12.5, 25 and 50 g a.i./ha of Compound 3 were 4630, 4830, 4730 and 4930 kg/ha, respectively, compared to 2630 kg/ha from the untreated controls.

[3] = tested on: maize plants (Prairie Hybrid 2431 organic field corn); assay: Test P: vigor (height) of maize plants in greenhouse in absence of pest pressure, surface drench
Method: In this test, the effect of a compound of the invention on the vigor of maize plants grown in a greenhouse in absence of pest pressure was measured.
Single maize seeds (Prairie Hybrid 2431 organic field corn) were planted 2.0 to 2.5 cm deep in 10 cm×10 cm×8 cm plastic pots containing either Redi-Earth sphagnum peat moss-based potting media (Sun Gro Horticulture Canada Ltd., Vancouver, British Columbia) or a 50/50 mixture of Matapeake soil and sand. Seeded pots were initially watered to a 5 cm depth and placed in a growth chamber maintained at 25° C. within a 16 h light/8 h dark photoperiod. The pots were watered whenever the soil surface dried.
After 8 days from initial watering, the potted plants were treated by applying as a surface drench 40 mL of an aqueous treatment mixture containing either 0.2 or 2.5 mg of Compound 3. To the pots of untreated control plants, 40 mL of tap water was similarly applied. Treatments and untreated controls were replicated 10 times.
Treated and untreated plants were then arranged in a complete randomized block design in a greenhouse maintained at 25.6-27.8° C. during the day and 23.0-25.0° C. at night. Supplemental lighting was added when outside light levels dropped below 200 watts m^−2 during a 16-h growing period, except that no supplemental lighting was activated when outside light energy had already accumulated to more than 5000 w h m^−2 during the growing period. Greenhouse shading closed when outside light levels rose above 600 watts m^−2 for more than 20 minutes.
No modifications to relative humidity were made. Tap water irrigation was provided twice daily as needed to maintain soil moisture. Every second or third day the plants were fertilized with irrigation water containing 100 ppm N—P—K from Peters® soluble 20-20-20 general purpose fertilizer (The Scotts Company, Marysville, Ohio, U.S.A.). The applied nutrient levels were considered less that ideal for optimal growth of maize plants.
Plant height was determined at 0, 7, 14, 21 and 28 days after treatment by measuring the length from the vertically extended longest leaf tip to the soil surface. The heights averaged across the 10 replicates are listed in Test Tables 1 and 2 for plants grown in Redi-Earth soil and Matapeake Soil/Sand, respectively.

[4] = tested on: Rice plants (indica cultivar ‘MTU1010’); assay: Test J: vigor of rice crop outdoors, two foliar applications, West Godavri; conditions: applied twice, 48 days after first application, Nilaparvata lugens level high
Method: as §1
Rice plants (indica cultivar ‘MTU1010’) were transplanted into flooded 5 m×3 m test plots of clay loam soil in the delta region of the West Godavri district, Andhra Pradesh, India, during the rainy season, and grown using local agronomic practices. After 52 days, aqueous mixtures of Compound 3 were applied to the foliage of the rice plants at 12.5, 25 or 50 g a.i./ha in a spray volume of 387 L/ha using a backpack sprayer. Plots of unsprayed rice plants were used as controls. Each treatment and control was replicated three times, and the plots were arranged in a randomized complete block design. At the time of application of Compound 3, the pest level of rice brown planthopper (Nilaparvata lugens) was high, i.e. much above the level considered economically significant. 20 days after the first treatment, the foliar applications of aqueous mixtures of Compound 3 were repeated at the same application rates in a spray volume of 467 L/ha.

[5] = Matapeake Soil/Sand, 0.2 mg a.i./pot
[6] = Matapeake Soil/Sand, 2.5 mg a.i./pot
[7] = Redi-Earth Soil, 0.2 mg a.i./pot
[8] = Redi-Earth Soil, 2.5 mg a.i./pot

Structure (SMILES): O=c1c(-c2cccc(C(F)(F)F)c2)c([O-])[n+](Cc2cncnc2)c2ccccn12 [Compound 3, 2-hydroxy-4-oxo-1-(5-pyrimidinylmethyl)-3-[3-(trifluoromethyl)phenyl]-4H-pyrido[1,2-a]pyrimidinium inner salt]
- mortality at 2 ppm ([1]; sprayed at 2 ppm): ≥ 80%
- mortality at 10 ppm ([1]; sprayed at 10 ppm): ≥ 80%
- mortality at 50 ppm ([1]; sprayed at 50 ppm): ≥ 80%
- mortality at 250 ppm ([1]; sprayed at 250 ppm): ≥ 80%
- harvest yield ([2]; 6.25 g a.i./ha with 30 g a.i./ha indoxacarb and 20 g a.i./ha chlorantraniliprole): 4630 kg/ha
- harvest yield ([2]; 12.5 g a.i./ha with 30 g a.i./ha indoxacarb and 20 g a.i./ha chlorantraniliprole): 4830 kg/ha
- harvest yield ([2]; 25 g a.i./ha with 30 g a.i./ha indoxacarb and 20 g a.i./ha chlorantraniliprole): 4730 kg/ha
- harvest yield ([2]; 50 g a.i./ha with 30 g a.i./ha indoxacarb and 20 g a.i./ha chlorantraniliprole): 4930 kg/ha
- crop vigor (visual rating, 0 to 200% scale, control = 100%) ([2]; all application rates (6.25, 12.5, 25 or 50 g a.i./ha) with 30 g a.i./ha indoxacarb and 20 g a.i./ha chlorantraniliprole, 21 days after application, Nilaparvata lugens level high): 100%
- Height (cm) at Days after Treatment 0 days [3, 5]: 22 cm
- Height (cm) at Days after Treatment 7 days [3, 5]: 49 cm
- Height (cm) at Days after Treatment 14 days [3, 5]: 66 cm
- Height (cm) at Days after Treatment 21 days [3, 5]: 76 cm
- Height (cm) at Days after Treatment 28 days [3, 5]: 87 cm
- Height (cm) at Days after Treatment 0 days [3, 6]: 22 cm
- Height (cm) at Days after Treatment 7 days [3, 6]: 46 cm
- Height (cm) at Days after Treatment 14 days [3, 6]: 65 cm
- Height (cm) at Days after Treatment 21 days [3, 6]: 78 cm
- Height (cm) at Days after Treatment 28 days [3, 6]: 88 cm
- Height (cm) at Days after Treatment 0 days [3, 7]: 22 cm
- Height (cm) at Days after Treatment 7 days [3, 7]: 53 cm
- Height (cm) at Days after Treatment 14 days [3, 7]: 85 cm
- Height (cm) at Days after Treatment 21 days [3, 7]: 111 cm
- Height (cm) at Days after Treatment 28 days [3, 7]: 131 cm
- Height (cm) at Days after Treatment 0 days [3, 8]: 21 cm
- Height (cm) at Days after Treatment 7 days [3, 8]: 53 cm
- Height (cm) at Days after Treatment 14 days [3, 8]: 85 cm
- Height (cm) at Days after Treatment 21 days [3, 8]: 111 cm
- Height (cm) at Days after Treatment 28 days [3, 8]: 137 cm
- growth enhancing effect on maize plants ([3]; pest-free environment, nutrient constrained, both soils, 0.2 or 2.5 mg per pot): little growth enhancing effect was noticeable
- crop vigor (visual rating, 0 to 200% scale, untreated = 100%) ([4]; 12.5 g a.i./ha foliar): 148%
- crop vigor (visual rating, 0 to 200% scale, untreated = 100%) ([4]; 25 g a.i./ha foliar): 148%
- crop vigor (visual rating, 0 to 200% scale, untreated = 100%) ([4]; 50 g a.i./ha foliar): 148%
